According to patent publication US7256176B2, “Methods of modulating β cell function” (Joslin Diabetes Center, Inc., priority 2002, dated 2007):
Positions of bridges follow the written chain, without caps; N, C: chain ends.

Assays:
human MCH-2R = human MCH-2R (Homo sapiens, UniProt Q969V1); conditions: cited from earlier work
MAP kinase = assay: Effect of MCH on MAP kinase activity in islets or clonal β-cells; format: cell-based, mouse; conditions: islets or clonal β-cells treated with 1 μM MCH
Source text: To begin to examine the mechanism of action of MCH in the islets the effect of the peptide on MAP kinase activity was investigated.

[1] = system: islets isolated from MCH over expressing mice; assay: MCH treatment of islets from MCH over expressing mice (insulin secretion); format: cell-based, mouse; conditions: n=2, control 2.8±0.36
rat adipocytes = conditions: cited from earlier work
[2] = system: islets isolated from C57B1/6J mice; assay: MCH stimulation of insulin secretion from overnight cultured isolated islets; format: cell-based, mouse
feeding = conditions: administered ICV; cited from earlier work

Chain of human MCH-2R (Q969V1 whole entry): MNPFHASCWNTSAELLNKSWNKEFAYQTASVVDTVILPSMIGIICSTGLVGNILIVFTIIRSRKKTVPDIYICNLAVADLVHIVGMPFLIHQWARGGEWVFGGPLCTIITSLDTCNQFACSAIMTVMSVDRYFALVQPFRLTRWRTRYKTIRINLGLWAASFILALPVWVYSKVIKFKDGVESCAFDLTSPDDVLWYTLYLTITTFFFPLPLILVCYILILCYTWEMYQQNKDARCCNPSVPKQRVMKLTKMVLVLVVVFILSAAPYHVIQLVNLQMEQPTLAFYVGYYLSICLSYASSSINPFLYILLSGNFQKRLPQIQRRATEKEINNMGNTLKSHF

Arg-cyclo(S-S)(Cys-Met-Leu-Gly-Arg-Val-Tyr-Arg-Pro-Cys)
activation of receptor compared with full-length human MCH (human MCH-2R): about as effectively as full-length human MCH

NH2-Asp-Phe-Asp-Met-Leu-Arg-Cys-Met-Leu-Gly-Arg-Val-Tyr-Arg-Pro-Cys-Trp-Gln-Val-COOH (H-DFDMLRCMLGRVYRPCWQV-OH; disulfide 7-16 (inferred); ends not checked) [MCH, cyclic 19 amino-acid peptide that is an important regulator of feeding behavior]
effect on MAP kinase levels (MAP kinase): No consistent effect | insulin secretion [1]: 11.4±0.49 pg/μg protein | leptin secretion (rat adipocytes): stimulate leptin secretion | insulin secretion ([2]; 100 nM MCH, 30 min incubation, 11.1 mM glucose, n=3, p<0.02 vs control 0.86±0.22): 2.1±0.11 % of insulin content | insulin secretion, dependence on concentration and time ([2]; overnight cultured islets): concentration- and time-dependent insulin secretion | feeding (feeding): acute increase in feeding
